Read-outs that look alike come from different tables or passages of the source.
How the values were obtained:
[1] = target: T1, bradykinin 1 receptor (B1R) of the rat (Rattus norvegicus, UniProt P97583); assay: Functional investigation on the rat bradykinin 1 receptor (B1R), Ca2+ FLIPR assay in CHO K1 rB1R cells; assay type: cell-based; conditions: test substance 10 μM; for inhibition at 10 µM: CHO-K1, B1R antagonism rat, read-out: B1R Ant. r [10 μM] % Inhibition
T1 construct: expressed in transfected cells; host or cells: CHO K1 cells
T1 sequence (P97583 1-337): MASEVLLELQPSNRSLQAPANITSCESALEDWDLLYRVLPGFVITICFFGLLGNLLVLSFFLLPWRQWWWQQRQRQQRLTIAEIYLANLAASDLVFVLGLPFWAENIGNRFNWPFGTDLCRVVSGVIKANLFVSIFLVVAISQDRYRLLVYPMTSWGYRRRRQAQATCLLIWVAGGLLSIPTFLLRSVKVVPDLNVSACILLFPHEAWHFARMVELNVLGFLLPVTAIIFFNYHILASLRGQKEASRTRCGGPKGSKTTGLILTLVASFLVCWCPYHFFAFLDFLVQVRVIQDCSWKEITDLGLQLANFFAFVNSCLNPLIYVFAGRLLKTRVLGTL
Outline: (§1)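 Cells were dye-loaded with Fluo-4 plus probenecid, then test substances added and Ca2+ influx compared with agonist control for % activation. After 10-20 min, EC80 agonist (Lys-Des-Arg9-bradykinin human; Des-Arg9-bradykinin rat) was applied; suppression gave % inhibition and IC50 values.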

[2] = target: T2, human μ opiate receptor (Homo sapiens, UniProt P35372); assay: Affinity for the human μ opiate receptor ([3H]-naloxone displacement, CHO-K1 receptor membrane preparation, SPA); assay type: binding; conditions: 1.5 h, Table 3, to be read in the same way as Table 1; test concentration 1 μM; read-out: μ
T2 construct: purchased PerkinElmer Life Sciences, Zaventem, Belgium RB-HOM; host or cells: CHO-K1 cells (membrane preparation)
Procedure: Binding data of the compounds on the μ opioid receptor and data on the inhibition of reuptake of serotonin (5-HT) are given in Table 1. The data for the μ receptor were measured at a test concentration of 1 μM, and those for the serotonin reuptake at 10 μM. The values are stated in % inhibition.
Investigation of the Activity of the Compounds of the Invention Method for Determining the Affinity for the Human μ Opiate Receptor
The receptor affinity for the human p opiate receptor is determined in a homogeneous set-up in microtitre plates. For this, dilution series of the substances to be tested are incubated with a receptor membrane preparation (15-40 μg of protein/250 μl of incubation batch) of CHO-K1 cells which express the human p opiate receptor (RB-HOM receptor membrane preparation from PerkinElmer Life Sciences, Zaventem, Belgium) in the presence of 1 nmol/l of the radioactive ligand [^3H]-naloxone (NET719, PerkinElmer Life Sciences, Zaventem, Belgium) and 1 mg of WGA-SPA-Beads (wheat germ agglutinin SPA beads from Amersham/Pharmacia, Freiburg, Germany) in a total volume of 250 μl for 90 minutes at room temperature. 50 mmol/l of Tris-HCl supplemented with 0.06% of bovine serum albumin is used as the incubation buffer. 100 μmol/l of naloxone are additionally added for determination of the non-specific binding. After the end of the ninety-minute incubation time, the microtitre plates are centrifuged for 20 minutes at 1,000 g and the radioactivity is measured in a β-counter (Microbeta-Trilux, PerkinElmer Wallac, Freiburg, Germany). The percentage displacement of the radioactive ligand from its binding to the human p opiate receptor is determined at a concentration of the test substances of 1 μmol/l and stated as the percentage inhibition of the specific binding. Starting from the percentage displacement by various concentrations of the test substances, IC50 inhibitory concentrations which cause a 50 percent displacement of the radioactive ligand are calculated. By conversion by means of the Cheng-Prusoff relationship, Ki values for the test substances are obtained.

[3] = target: T3, human bradykinin 1 receptor (B1R) (Homo sapiens, UniProt P46663); assay: Functional investigation on the human bradykinin 1 receptor (B1R), Ca2+ FLIPR assay in CHO K1 hB1R cells; assay type: cell-based; conditions: test substance 10 μM; for inhibition at 10 µM: CHO-K1, B1R antagonism human, read-out: B1R Ant. h [10 μM] % Inhibition
T3 construct: expressed in transfected cells; host or cells: CHO K1 cells
T3 sequence (P46663 1-353): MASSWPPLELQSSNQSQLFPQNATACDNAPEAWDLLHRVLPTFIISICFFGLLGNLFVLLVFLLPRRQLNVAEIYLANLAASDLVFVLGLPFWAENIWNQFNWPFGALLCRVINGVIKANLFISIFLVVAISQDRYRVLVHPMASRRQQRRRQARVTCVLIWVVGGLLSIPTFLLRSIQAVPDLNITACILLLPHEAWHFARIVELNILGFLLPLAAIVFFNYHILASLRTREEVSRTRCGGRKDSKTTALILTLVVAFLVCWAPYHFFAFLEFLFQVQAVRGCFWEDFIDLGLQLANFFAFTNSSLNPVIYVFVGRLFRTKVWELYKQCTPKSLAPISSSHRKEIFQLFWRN
Outline: as §1

[4] = % inhibition compared with the maximum achievable inhibition

T2 sequence (P35372 whole entry): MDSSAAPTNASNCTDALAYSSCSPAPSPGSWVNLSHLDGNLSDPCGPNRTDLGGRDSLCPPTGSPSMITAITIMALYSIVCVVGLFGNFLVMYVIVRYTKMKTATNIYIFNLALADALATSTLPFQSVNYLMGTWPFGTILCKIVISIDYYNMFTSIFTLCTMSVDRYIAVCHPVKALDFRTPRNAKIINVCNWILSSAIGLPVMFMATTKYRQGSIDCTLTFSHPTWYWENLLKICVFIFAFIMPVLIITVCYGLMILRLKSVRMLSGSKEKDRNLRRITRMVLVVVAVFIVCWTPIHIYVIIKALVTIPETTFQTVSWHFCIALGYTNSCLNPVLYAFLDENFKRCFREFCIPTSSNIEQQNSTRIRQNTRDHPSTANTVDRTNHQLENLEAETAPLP

| Compound | inhibition at 10 µM ([1]; Ca2+ FLIPR, CHO K1 rB1R cells) | inhibition at 1 µM [2] | inhibition at 10 µM ([3]; Ca2+ FLIPR, CHO K1 hB1R cells) | inhibition at 10 µM [1, 4] | inhibition at 10 µM [3, 4] | B1R Ant. r [10 μM] % Inhibition ([1]; B1R antagonism rat, Ca2+ FLIPR, CHO K1 rB1R cells) | B1R Ant. h [10 μM] % Inhibition ([3]; B1R antagonism human, Ca2+ FLIPR, CHO K1 hB1R cells) |
| --- | --- | --- | --- | --- | --- | --- | --- |
| COc1cc(C)c(S(=O)(=O)N2CCCCC2COCC(=O)NCC2CCC(C(CCc3ccccc3)N3CCOCC3)CC2)c(C)c1 (centres unmarked) [Example 753, 2-((1-(4-methoxy-2,6-dimethylphenylsulfonyl)piperidin-2-yl)methoxy)-N-((4-(1-morpholino-3-phenylpropyl)cyclohexyl)methyl)acetamide] | 103% | 17% | 104% | – | – | – | – |
| COc1cc(C)c(S(=O)(=O)N2CCCCC2COCC(=O)N2CCC(C(CCc3ccccc3)N3CCN(C)CC3)CC2)c(C)c1 (centres unmarked) [Example 806, 2-((1-(4-methoxy-2,6-dimethylphenylsulfonyl)piperidin-2-yl)methoxy)-1-(4-(1-(4-methylpiperazin-1-yl)-3-phenylpropyl)piperidin-1-yl)ethanone] | – | 12% | – | 99% | 109% | – | – |
| COc1cc(C)c(S(=O)(=O)N2CCC(OCC(=O)NC3CCC(C(c4ccccc4)N4CCOCC4)CC3)C2)c(C)c1 (centres unmarked) [Example 687, 2-(1-(4-methoxy-2,6-dimethylphenylsulfonyl)pyrrolidin-3-yloxy)-N-(4-(morpholino(phenyl)methyl)cyclohexyl)acetamide] | 88% | 6% | 48% | – | – | – | – |
| O=C(COCC1CCCN1S(=O)(=O)c1c(Cl)cc(Cl)cc1Cl)NC1CCC(C(c2ccccc2)N2CCOCC2)CC1 (centres unmarked) [Example 698, N-(4-(morpholino(phenyl)methyl)cyclohexyl)-2-((1-(2,4,6-trichlorophenylsulfonyl)pyrrolidin-2-yl)methoxy)acetamide] | 86% | 40% | 39% | – | – | – | – |
| COc1cc(C)c(S(=O)(=O)N2CCCCC2COCC(=O)N2CCC(C(c3ccccc3)N3CCN(C)CC3)CC2)c(C)c1 (centres unmarked) [Example 807, 2-((1-(4-methoxy-2,6-dimethylphenylsulfonyl)piperidin-2-yl)methoxy)-1-(4-((4-methylpiperazin-1-yl)(phenyl)methyl)piperidin-1-yl)ethanone] | – | 11% | – | 98% | 105% | – | – |
| COc1cc(C)c(S(=O)(=O)N2CCC(OCC(=O)NCC3CCC(C(c4ccccc4)N4CCOCC4)CC3)C2)c(C)c1 (centres unmarked) [Example 724, 2-(1-(4-methoxy-2,6-dimethylphenylsulfonyl)pyrrolidin-3-yloxy)-N-((4-(morpholino(phenyl)methyl)cyclohexyl)methyl)acetamide] | 50% | 8% | 55% | – | – | – | – |
| O=C(COCC1CCCN(S(=O)(=O)c2c(Cl)cc(Cl)cc2Cl)C1)NC1CCC(C(c2ccccc2)N2CCCC2)CC1 (centres unmarked) [Example 633, N-(4-(phenyl(pyrrolidin-1-yl)methyl)cyclohexyl)-2-((1-(2,4,6-trichlorophenylsulfonyl)piperidin-3-yl)methoxy)acetamide] | 63% | 91% | 55% | – | – | – | – |
| CN(CCOCC(=O)NCC1CCC(C(c2ccccc2)N2CCCC2)CC1)S(=O)(=O)c1c(Cl)cc(Cl)cc1Cl (centres unmarked) [Example 626, N-((4-(phenyl(pyrrolidin-1-yl)methyl)cyclohexyl)methyl)-2-(2-(2,4,6-trichloro-N-methylphenylsulfonamido)ethoxy)acetamide] | 47% | 71% | 105% | – | – | – | – |
| CN1CCN(C(c2ccccc2)C2CCC(NC(=O)COCCN(C)S(=O)(=O)c3c(Cl)cccc3Cl)CC2)CC1 (centres unmarked) [Example 684, 2-(2-(2,6-dichloro-N-methylphenylsulfonamido)ethoxy)-N-(4-((4-methylpiperazin-1-yl)(phenyl)methyl)cyclohexyl)acetamide] | 61% | 29% | 95% | – | – | – | – |
| CN(CCOCC(=O)NC1CCC(C(c2ccccc2)N2CCOCC2)CC1)S(=O)(=O)c1c(Cl)cc(Cl)cc1Cl (centres unmarked) [Example 607, 2-{2-[methyl-(2,4,6-trichlorobenzenesulfonyl)-amino]-ethoxy}-N-[4-(morpholin-4-ylphenylmethyl)-cyclohexyl]-acetamide] | – | – | – | – | – | 3% | 12% |
| CN(C)C(CCc1ccccc1)C1CCC(NC(=O)CNC(=O)c2nc(-c3cccs3)no2)CC1 (centres unmarked) [Example 784, 3-thiophen-2-yl-[1,2,4]oxadiazole-5-carboxylic acid {[4-(1-dimethylamino-3-phenyl-propyl)-cyclohexylcarbamoyl]-methyl}-amide] | -1% | – | 76% | – | – | – | – |
| CN(C)C(CCc1ccccc1)C1CCC(NC(=O)CNC(=O)c2nc(-c3ccc(C(F)(F)F)cc3)no2)CC1 (centres unmarked) [Example 785, 3-(4-trifluoromethyl-phenyl)-[1,2,4]oxadiazole-5-carboxylic acid {[4-(1-dimethylamino-3-phenyl-propyl)-cyclohexylcarbamoyl]-methyl}-amide] | 32% | – | 76% | – | – | – | – |
| CN(C)C(c1ccccc1)C1CCC(NC(=O)CCNC(=O)c2nc(-c3cccs3)no2)CC1 (centres unmarked) [Example 776, 3-thiophen-2-yl-[1,2,4]oxadiazole-5-carboxylic acid {2-[4-(dimethylamino-phenyl-methyl)-cyclohexylcarbamoyl]-ethyl}-amide] | 30% | – | -22% | – | – | – | – |
| COc1ccccc1-c1noc(C(=O)NCC(=O)NCC2CCC(C(c3cccc(F)c3)N(C)C)CC2)n1 (centres unmarked) [Example 787, 3-(2-methoxy-phenyl)-[1,2,4]oxadiazole-5-carboxylic acid [({4-[dimethylamino-(3-fluoro-phenyl)-methyl]-cyclohexylmethyl}-carbamoyl)-methyl]-amide] | 11% | – | 19% | – | – | – | – |
| CN(C)C(c1cccs1)C1CCC(NC(=O)CNC(=O)c2nc(-c3ccc(C(F)(F)F)cc3)no2)CC1 (centres unmarked) [Example 777, 3-(4-trifluoromethyl-phenyl)-[1,2,4]oxadiazole-5-carboxylic acid {[4-(dimethylamino-thiophen-2-yl-methyl)-cyclohexylcarbamoyl]-methyl}-amide] | 27% | – | -1% | – | – | – | – |
| CN(C)C(CCc1ccccc1)C1CCC(NC(=O)CNC(=O)c2nc(-c3ccc4c(c3)OCO4)no2)CC1 (centres unmarked) [Example 783, 3-benzo[1,3]dioxol-5-yl-[1,2,4]oxadiazole-5-carboxylic acid {[4-(1-dimethylamino-3-phenyl-propyl)-cyclohexylcarbamoyl]-methyl}-amide] | -28% | – | 45% | – | – | – | – |

Source: patent US8106055B2, “Substituted amide compounds” (Gruenenthal GmbH, priority 2007, dated 2012)
